This note sets out measurements from US6969711B2, “Cyclic diamine compounds and medicine containing the same” (Kowa Company, Ltd., priority 1997, dated 2005).

The molecule `CCCCCCCN(CCN1CCN(CCSc2nc3cccc(C(F)(F)F)c3o2)CC1)C(=O)Nc1c(C(C)C)cc(O)cc1C(C)C.Cl` had a melting point of 95 to 97 °C.

Take `CC(C)c1cc(C(C)C)c(NC(=O)CN2CCN(CCSc3nc4ccccc4o3)CC2)c(C(C)C)c1` [Example 48, 2-[4-[2-(benzoxazol-2-ylthio)ethyl]piperazin-1-yl]-N-(2,4,6-triisopropylphenyl)acetamide]: the melting point is 160 to 163 °C.

`COc1cc(C(C)C)c(NC(=O)CN2CCN(CCSc3nc4ccccc4o3)CC2)c(C(C)C)c1` [Example 75, 2-[4-[2-(benzoxazol-2-ylthio)ethyl]piperazin-1-yl]-N-(2,6-diisopropyl-4-methoxyphenyl)acetamide] had a melting point of 115 to 117 °C.

In turn, `COCc1ccc2nc(SCCN3CCN(CC(=O)Nc4c(C(C)C)cccc4C(C)C)CC3)oc2c1COC` [Example 100, 2-[4-[2-(6,7-bis(methoxymethyl)benzoxazol-2-ylthio]ethyl]piperazin-1-yl]-N-(2,6-diisopropylphenyl)acetamide] registered a melting point of 96 to 97 °C.

For `CC(C)c1cccc(C(C)C)c1NC(=O)NCCN1CCN(CCSc2nc3ccccc3o2)CC1` [Example 79, N-[2-[4-[2-(benzoxazol-2-ylthio)-ethyl]piperazin-1-yl]ethyl]-N′-(2,6-diisopropylphenyl)urea], the melting point lay within 152 to 153 °C.

In the case of `CC(C)c1cccc(C(C)C)c1NC(=O)NCCN1CCN(CCSc2nc3ncccc3o2)CC1` [Example 83, N-[2-[4-[2-(oxazolo[4,5-b]pyridine-2-ylthio)ethyl]piperazin-1-yl]ethyl]-N′-(2,6-diisopropylphenyl)urea], the melting point lay within 175 to 176 °C.

Take `CC(C)c1ccc([N+](=O)[O-])c(C(C)C)c1NC(=O)CN1CCN(CCSc2nc3cccc(C(F)(F)F)c3o2)CC1` [Example 87, 2-[4-[2-(7-trifluoromethylbenzoxazol-2-ylthio)ethyl]piperazin-1-yl]-N-(2,6-diisopropyl-3-nitrophenyl)acetamide]: the melting point was 115 to 117 °C.

Regarding `CCCCCCCN(CCN1CCN(CCSc2nc3ccccc3o2)CC1)C(=O)Nc1c(SCC)cc(C)nc1SCC.Cl.Cl`, the melting point fell in the range of 124 to 127 °C.

Consider `CC(C)c1cccc(C(C)C)c1NC(=O)CN1CCN(CCSc2nc3cccc(C(F)(F)F)c3o2)CC1` [Example 85, 2-[4-[2-(7-trifluoromethylbenzoxazol-2-ylthio)ethyl]piperazin-1-yl]-N-(2,6-diisopropylphenyl)acetamide], for which the melting point is 135 to 137 °C (dec.).

The molecule `CCCCCCCN(CCN1CCN(CCSc2nc3ccccc3s2)CC1)C(=O)Nc1c(SCC)cc(C)nc1SCC.Cl.Cl` returned a melting point of 136 to 138 °C.

As to `COc1ccc(C(C)C)c(NC(=O)CN2CCN(CCCSc3nc4c(C)c(Cl)cc(C(C)C)c4o3)CC2)c1C(C)C` [Example 110, 2-[4-[3-(5-chloro-7-isopropyl-4-methylbenzoxazol-2-ylthio)propyl]piperazin-1-yl]-N-(2,6-diisopropyl-3-methoxyphenyl)acetamide], the melting point lay in the range of 126 to 127 °C.

In turn, `CC(C)c1cccc(C(C)C)c1NC(=O)CN1CCN(CCSc2nc3cccc(CO)c3o2)CC1` [Example 102, 2-[4-[2-(7-hydroxymethylbenzoxazol-2-ylthio]ethyl]piperazin-1-yl]-N-(2,6-diisopropylphenyl)acetamide] came in with a melting point of 138 to 139 °C.

As for `CSc1ncccc1NC(=O)CN1CCN(CCSc2nc3ccccc3o2)CC1.Cl.Cl`, the melting point lay within 186 to 189 °C.

Turning to `COC(=O)c1cccc2nc(SCCN3CCN(CC(=O)Nc4c(C(C)C)cccc4C(C)C)CC3)oc12` [Example 4, 2-[4-[2-(7-methoxycarbonylbenzoxazol-2-ylthio)ethyl]-piperazin-1-yl]-N-(2,6diisopropylphenyl)acetamide], the melting point fell in the range of 159 to 161 °C.

With `Cc1cc(SC(C)C)c(NC(=O)CN2CCN(CCCSc3nc4ccccc4o3)CC2)c(SC(C)C)n1.Cl.Cl`, the melting point lay within 178 to 181 °C.

`CCOCCOc1cc(C(C)C)c(NC(=O)CN2CCN(CCCSc3nc4ccccc4o3)CC2)c(C(C)C)c1` [Example 120, 2-[4-[3-(benzoxazol-2-ylthio)propyl]piperazin-1-yl]-N-[2,6-diisopropyl-4-(2-ethoxyethyloxy)phenyl]acetamide] yielded a melting point of 115 to 117 °C.

With `COc1cc2oc(SCCN3CCN(CC(=O)Nc4c(C(C)C)cccc4C(C)C)CC3)nc2c(OC)c1OC` [Example 98, 2-[4-[2-(4,5,6-trimethoxybenzoxazol-2-ylthio)ethyl]piperazin-1-yl]-N-(2,6-diisopropylphenyl)acetamide], the melting point is 126 to 129 °C (dec.).

`CCOCCOc1ccc(C(C)C)c(NC(=O)CN2CCN(CCCSc3nc4ccccc4o3)CC2)c1C(C)C` [Example 71, 2-[4-[3-(benzoxazol-2-ylthio)propyl]piperazin-1-yl]-N-[2,6-diisopropyl-3-(2-ethoxyethyloxy)phenyl]acetamide]: the melting point was 99 to 100 °C.

`CCSC1=C(NC(=O)CN2CCN(CCSc3nc4c(C)c(Cl)cc(C(C)C)c4o3)CC2)C=CC(C)(SCC)N1` (centres unmarked) [Example 109, 2-[4-[2-(5-chloro-7-isopropyl-4-methylbenzoxazol-2-ylthio)ethyl]piperazin-1-yl]-N-[2,6-bis(ethylthio)-6-methyl-3-pyridyl]acetamide] showed a melting point of 120 to 122 °C.

On to `CCCCCCCN(CCN1CCN(CCSc2nc3c(C)c(Cl)cc(C(C)C)c3o2)CC1)C(=O)Nc1c(C(C)C)cc(O)cc1C(C)C` [Example 116, N-[2-[4-[2-(5-chloro-7-isopropyl-4-methylbenzoxazol-2-ylthio)ethyl]piperazin-1-yl]ethyl]-N′-(2,6-diisopropyl-4-hydroxyphenyl)-N-heptylurea], for which the melting point was 138 to 140 °C.

As for `CCSc1cc(C)nc(SCC)c1NC(=O)CN1CCN(CCSc2nc3cccc(C(=O)OC)c3o2)CC1` [Example 35, 2-[4-[2-(7-methoxycarbonylbenzoxazol-2-ylthio)ethyl]piperazin-1-yl]-N-[2,4-bis(ethylthio)-6methyl-3-pyridyl)acetamide], the melting point was 118 to 119 °C.

Consider `CC(C)c1cc(OS(C)(=O)=O)cc(C(C)C)c1NC(=O)CN1CCN(CCSc2nc3ccccc3o2)CC1` [Example 74, 2-[4-[2-(benzoxazol-2-ylthio)ethyl]piperazin-1-yl]-N-(2,6-diisopropyl-4-mesyloxyphenyl)acetamide], for which the melting point fell in the range of 115 to 117 °C.

Molecule `CSc1ncnc(SC)c1NC(=O)CN1CCN(CCSc2nc3ccccc3o2)CC1` [Example 46, 2-[4-[2-(benzoxazol-2-ylthio)ethyl]piperazin-1-yl]-N-[4,6-bis(methylthio)-5-pyrimidyl)acetamide] came in with a melting point of 171 to 172 °C.

In the case of `CC(C)c1cc(O[C@@H]2O[C@H](CO)[C@@H](O)[C@H](O)[C@H]2O)cc(C(C)C)c1NC(=O)CN1CCN(CCSc2nc3cccc(C(F)(F)F)c3o2)CC1` [Example 134, 2-[4-[2-(7-trifluoromethylbenzoxazol-2-ylthio)ethyl]piperazin-1-yl]-N-[2,6-diisopropyl-4-(β-D-glucopyranosyl)oxyphenyl]acetamide], the melting point was in the range of 130 to 133 °C.

`CC(=O)Oc1cc(C(C)C)c(NC(=O)CN2CCN(CCSc3nc4ccccc4o3)CC2)c(C(C)C)c1` [Example 73, 2-[4-[2-(benzoxazol-2-ylthio)ethyl]piperazin-1-yl]-N-(4-acetoxy-2,6-diisopropylphenyl)acetamide]: the melting point lay in the range of 126 to 129 °C.

`COC(=O)c1cccc2nc(SCCN3CCN(CCNC(=O)Nc4c(C(C)C)cccc4C(C)C)CC3)oc12` [Example 82, N-[2-[4-[2-(7-methoxycarbonylbenzoxazol-2-ylthio)ethyl]piperazin-1-yl]ethyl]-N′-(2,6-diisopropylphenyl)urea]: the melting point lay in the range of 186 to 188 °C.

With `CC(C)c1cccc(C(C)C)c1NC(=O)CN1CCN(CCOc2nc3ccccc3[nH]2)CC1` [Example 154, 2-[4-[2-(benzimidazol-2-yloxy)ethyl]piperazin-1-yl]-N-(2,6-diisopropylphenyl)acetamide], the melting point lay within 205 to 206 °C.

Take `COc1cc(C(C)C)c(NC(=O)CN2CCN(CCSc3nc4cccc([N+](=O)[O-])c4o3)CC2)c(C(C)C)c1` [Example 105, 2-[4-[2-(7-nitrobenzoxazol-2-ylthio)ethyl]-piperazin-1-yl]-N-(2,6-diisopropyl-4-methoxyphenyl)acetamide]: the melting point lay within 165 to 166 °C.

With `CC(C)c1cc(OC(=O)[C@H](C)N)cc(C(C)C)c1NC(=O)CN1CCN(CCSc2nc3cccc(C(F)(F)F)c3o2)CC1.O=C(O)C(F)(F)F.O=C(O)C(F)(F)F.O=C(O)C(F)(F)F`, the melting point was in the range of 124 to 126 °C.

`COc1cc(C(C)C)c(NC(=O)CN2CCN(CCCSc3nc4ccccc4o3)CC2)c(C(C)C)c1` [Example 119, 2-[4-[3-(benzoxazol-2-ylthio)propyl]piperazin-1-yl]-N-(2,6-diisopropyl-4-methoxyphenyl)acetamide]: the melting point lay within 129 to 130 °C.

With `CC(C)c1ccc([N+](=O)[O-])c(C(C)C)c1NC(=O)CN1CCN(CCSc2nc3ccccc3o2)CC1` [Example 58, 2-[4-[2-(benzoxazol-2-ylthio)ethyl]piperazin-1-yl]-N-(2,6-diisopropyl-3-nitrophenyl)acetamide], the melting point was in the range of 143 to 145 °C.

`CSc1nc(C)ccc1NC(=O)CN1CCN(CCSc2nc3ccccc3o2)CC1.Cl.Cl` had a melting point of 200 to 203 °C.

As for `CC(C)c1cccc(C(C)C)c1NC(=O)NCCN1CCN(CCSc2nc3ccccc3s2)CC1` [Example 81, N-[2-[4-[2-(benzothiazole-2-ylthio)ethyl]piperazin-1-yl]ethyl]-N′-(2,6-diisopropylphenyl)urea], the melting point was 147 to 149 °C.

Molecule `CSc1ccc(C(C)C)c(NC(=O)CN2CCN(CCCSc3nc4ccccc4o3)CC2)c1C(C)C` [Example 68, 2-[4-[3-(benzoxazol-2-ylthio)propyl]piperazin-1-yl]-N-[2,6-diisopropyl-3-(methylthio)phenyl]acetamide] showed a melting point of 126 to 127 °C.

Regarding `CC(C)c1ccc(O)c(C(C)C)c1NC(=O)CN1CCN(CCSc2nc3ccccc3o2)CC1` [Example 61, 2-[4-[2-(benzoxazol-2-ylthio)ethyl]piperazin-1-yl]-N-(2,6-diisopropyl-3-hydroxyphenyl)acetamide], the melting point fell in the range of 96 to 98 °C.

As a reminder, the melting point is the temperature, or range, at which the solid turns liquid.
